Laboratory results taken from patent publication US20230321067A1, “DOSING REGIMEN COMPRISING 3-(1-OXOISOINDOLIN-2-YL)PIPERIDINE-2,6-DIONE DERIVATIVES” (Novartis AG, priority 2020, published 2023).

Experiments:
[1] = test system: plasma protein; assay: Plasma protein binding in vitro, human; format: in vitro ADME
Description: The binding to plasma protein of I-57 in vitro was moderate in all species, with an observed difference between rodents (73% in mouse, 76% in rat) and non-rodents (52% in dog and monkey, 54% in human). Blood-to-plasma ratios were in the range of 0.7-1.8 (human 1.1-1.3). […] Based on results with non-radiolabeled I-57 in the dog, a significant amount of unchanged I-57 was renally eliminated (˜20% of dose).

[2] = target: CYP2C9 (Homo sapiens, UniProt P11712); assay: Time-dependent CYP inhibition: CYP2C9; format: in vitro ADME; conditions: I-57 concentrations of up to 100 μM
Chain of CYP2C9 (P11712 whole entry): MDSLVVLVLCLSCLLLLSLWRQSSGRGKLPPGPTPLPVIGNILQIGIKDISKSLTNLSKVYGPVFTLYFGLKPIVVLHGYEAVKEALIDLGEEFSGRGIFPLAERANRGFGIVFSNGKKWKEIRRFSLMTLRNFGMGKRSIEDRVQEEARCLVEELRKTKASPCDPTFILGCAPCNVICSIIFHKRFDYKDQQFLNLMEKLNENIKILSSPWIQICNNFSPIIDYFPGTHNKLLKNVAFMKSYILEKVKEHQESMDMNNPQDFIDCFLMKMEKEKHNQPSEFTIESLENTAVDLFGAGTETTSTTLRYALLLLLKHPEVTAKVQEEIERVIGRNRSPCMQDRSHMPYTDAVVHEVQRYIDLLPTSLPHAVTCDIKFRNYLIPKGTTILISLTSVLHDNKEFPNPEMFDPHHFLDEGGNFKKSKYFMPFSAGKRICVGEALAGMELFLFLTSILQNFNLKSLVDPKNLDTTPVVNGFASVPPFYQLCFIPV

[3] = target: CYP2B6 (Homo sapiens, UniProt P20813); assay: Time-dependent CYP inhibition: CYP2B6; format: in vitro ADME; conditions: I-57 concentrations of up to 100 μM
Chain of CYP2B6 (P20813 whole entry): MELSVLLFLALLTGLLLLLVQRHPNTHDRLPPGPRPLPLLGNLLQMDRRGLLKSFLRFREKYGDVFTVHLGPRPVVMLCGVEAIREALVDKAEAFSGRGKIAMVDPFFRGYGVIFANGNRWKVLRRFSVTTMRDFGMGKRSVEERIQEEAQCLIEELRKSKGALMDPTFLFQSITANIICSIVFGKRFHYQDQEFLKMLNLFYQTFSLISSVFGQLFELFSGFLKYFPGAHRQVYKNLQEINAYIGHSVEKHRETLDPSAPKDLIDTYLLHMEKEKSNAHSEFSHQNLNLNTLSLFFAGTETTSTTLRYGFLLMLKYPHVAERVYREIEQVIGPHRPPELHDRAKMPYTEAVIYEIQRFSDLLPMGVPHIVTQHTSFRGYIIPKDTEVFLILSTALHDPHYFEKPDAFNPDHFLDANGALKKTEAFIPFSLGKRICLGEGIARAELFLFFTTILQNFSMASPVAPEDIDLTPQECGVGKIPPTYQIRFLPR

[4] = target: T1, IKZF2 (Homo sapiens, UniProt Q96SW2+Q9UKS7); assay: IKZF2 in human Tregs (tumor, blood) by flow cytometry, hPBMC AdT model; format: in vivo, NSG mice with human PBMCs; parameters: endogenous in cells; host or cells: human lymphocytes (CD4+FOXP3+ Tregs; total tumor-infiltrating lymphocytes) from healthy-donor PBMC transferred into NSG mice
T1 sequence (Q9UKS7 whole entry): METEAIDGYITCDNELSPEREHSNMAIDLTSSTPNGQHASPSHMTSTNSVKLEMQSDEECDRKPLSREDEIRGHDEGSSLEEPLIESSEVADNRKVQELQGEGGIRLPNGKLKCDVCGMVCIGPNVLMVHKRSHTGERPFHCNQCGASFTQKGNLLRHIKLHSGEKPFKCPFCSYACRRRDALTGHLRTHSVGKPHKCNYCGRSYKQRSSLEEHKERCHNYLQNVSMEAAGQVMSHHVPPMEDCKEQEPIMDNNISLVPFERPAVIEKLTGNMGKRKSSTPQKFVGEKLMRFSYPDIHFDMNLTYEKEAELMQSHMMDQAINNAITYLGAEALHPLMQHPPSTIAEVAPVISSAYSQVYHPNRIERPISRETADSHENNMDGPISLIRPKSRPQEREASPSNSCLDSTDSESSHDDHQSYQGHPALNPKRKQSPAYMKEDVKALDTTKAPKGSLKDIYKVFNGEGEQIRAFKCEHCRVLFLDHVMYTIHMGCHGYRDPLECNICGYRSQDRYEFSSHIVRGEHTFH
T1 sequence (Q96SW2 whole entry): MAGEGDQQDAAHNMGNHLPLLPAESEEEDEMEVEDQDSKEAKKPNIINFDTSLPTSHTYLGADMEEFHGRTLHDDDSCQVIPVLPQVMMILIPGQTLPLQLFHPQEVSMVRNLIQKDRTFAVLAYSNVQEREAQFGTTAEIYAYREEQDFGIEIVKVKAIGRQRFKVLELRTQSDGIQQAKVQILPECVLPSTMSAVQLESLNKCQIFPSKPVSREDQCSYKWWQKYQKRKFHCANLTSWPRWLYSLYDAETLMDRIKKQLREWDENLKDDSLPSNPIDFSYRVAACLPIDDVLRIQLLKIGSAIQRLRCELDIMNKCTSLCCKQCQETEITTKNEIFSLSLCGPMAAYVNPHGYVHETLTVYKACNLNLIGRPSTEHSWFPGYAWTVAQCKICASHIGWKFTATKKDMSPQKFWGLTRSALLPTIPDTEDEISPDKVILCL
T1 sequence (Q16531 whole entry partner): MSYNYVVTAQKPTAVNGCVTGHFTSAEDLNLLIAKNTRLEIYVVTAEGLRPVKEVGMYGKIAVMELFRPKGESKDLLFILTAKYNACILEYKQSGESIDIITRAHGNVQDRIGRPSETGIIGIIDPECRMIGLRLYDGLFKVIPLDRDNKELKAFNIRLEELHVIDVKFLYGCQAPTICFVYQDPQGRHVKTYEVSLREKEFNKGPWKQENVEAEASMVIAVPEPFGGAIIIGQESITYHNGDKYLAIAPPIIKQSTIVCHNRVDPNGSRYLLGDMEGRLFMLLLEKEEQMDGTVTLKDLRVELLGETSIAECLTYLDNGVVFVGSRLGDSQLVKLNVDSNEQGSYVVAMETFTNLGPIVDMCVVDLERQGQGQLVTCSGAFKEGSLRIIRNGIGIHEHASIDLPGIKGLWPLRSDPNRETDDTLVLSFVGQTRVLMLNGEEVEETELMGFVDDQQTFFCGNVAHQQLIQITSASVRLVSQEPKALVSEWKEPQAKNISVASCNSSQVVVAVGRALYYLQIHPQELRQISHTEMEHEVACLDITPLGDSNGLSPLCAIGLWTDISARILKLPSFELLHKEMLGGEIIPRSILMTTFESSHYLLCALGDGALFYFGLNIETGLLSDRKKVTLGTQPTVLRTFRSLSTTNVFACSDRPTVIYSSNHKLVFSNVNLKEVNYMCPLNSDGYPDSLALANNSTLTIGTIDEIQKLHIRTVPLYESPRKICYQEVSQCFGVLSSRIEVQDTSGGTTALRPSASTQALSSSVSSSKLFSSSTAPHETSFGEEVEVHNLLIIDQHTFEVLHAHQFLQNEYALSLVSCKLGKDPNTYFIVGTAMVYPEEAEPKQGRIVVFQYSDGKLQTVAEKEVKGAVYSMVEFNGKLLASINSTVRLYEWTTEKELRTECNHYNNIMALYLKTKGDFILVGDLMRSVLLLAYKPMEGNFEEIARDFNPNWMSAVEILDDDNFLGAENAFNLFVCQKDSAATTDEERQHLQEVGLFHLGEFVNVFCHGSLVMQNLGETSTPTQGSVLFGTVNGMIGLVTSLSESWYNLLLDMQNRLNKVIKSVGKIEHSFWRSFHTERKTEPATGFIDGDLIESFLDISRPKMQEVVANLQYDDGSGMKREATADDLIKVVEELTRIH
Experimental: (§1) The PK/PD relationship of I-57 was examined in the hPBMC AdT model system. Human PBMCs were adoptively transferred into female NSG mice harboring established MDA-MB231 xenografts (FIG. 6). This model was selected based on the observation that IKZF2 positive Tregs (CD4+FOXP3+) were readily identifiable in peripheral blood and infiltrated in the tumor xenografts.
The impact of I-57 on IKZF2 protein expression in human Tregs in the periphery and infiltrated in MDA-MB231 xenografts was assessed via flow cytometry at multiple time points after the last I-57 dose. […] Maximum effects were generally observed 4-16 h post dose. At a given dose level, the magnitude and duration of IKZF2 reduction in Tregs was generally consistent across tissues (tumor, spleen and blood).
Based on the data from this hPBMC AdT mouse model, unbound I-57 (73% percent plasma binding in the mouse) exposures (AUCinf) of 7, 30, 157 and 3474 ng*h/mL are required to achieve the reduction of IKZF2 positivity (via flow cytometry) in tumor Tregs by 31, 43, 56, and 75%, respectively. The relationship between the magnitude and duration of I-57-mediated IKZF2 degradation and subsequent modulation of therapeutically relevant downstream biology is not yet well understood.

[5] = target: CYP2C19 (Homo sapiens, UniProt P33261); assay: Time-dependent CYP inhibition: CYP2C19; format: in vitro ADME; conditions: I-57 concentrations of up to 100 μM
Chain of CYP2C19 (P33261 whole entry): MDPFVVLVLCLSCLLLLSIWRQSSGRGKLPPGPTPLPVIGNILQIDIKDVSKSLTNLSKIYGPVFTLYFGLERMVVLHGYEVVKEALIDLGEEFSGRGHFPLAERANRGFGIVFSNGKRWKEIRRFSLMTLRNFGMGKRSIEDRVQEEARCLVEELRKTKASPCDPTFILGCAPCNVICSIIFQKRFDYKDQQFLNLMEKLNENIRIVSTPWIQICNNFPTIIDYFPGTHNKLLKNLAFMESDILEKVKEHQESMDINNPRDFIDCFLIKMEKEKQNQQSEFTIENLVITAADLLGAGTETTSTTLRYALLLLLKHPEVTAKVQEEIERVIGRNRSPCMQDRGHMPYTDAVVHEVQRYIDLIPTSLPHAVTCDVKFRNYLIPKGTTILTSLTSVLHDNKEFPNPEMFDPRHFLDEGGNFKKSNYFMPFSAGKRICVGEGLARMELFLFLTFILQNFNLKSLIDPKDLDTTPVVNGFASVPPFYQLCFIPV

[6] = test system: CYP3A; assay: CYP inhibition: CYP3A; format: in vitro ADME; conditions: I-57 concentrations of up to 100 μM
[7] = target: T1, IKZF2; assay: IKZF2 in tumor-infiltrating lymphocytes by IHC, hPBMC AdT model; format: in vivo, NSG mice with human PBMCs; parameters: endogenous in cells; host or cells: human lymphocytes (CD4+FOXP3+ Tregs; total tumor-infiltrating lymphocytes) from healthy-donor PBMC transferred into NSG mice; conditions: 24 h post the 14th dose
Experimental: IKZF2 protein levels in total tumor-infiltrating lymphocytes were also assessed by immunohistochemistry (IHC) at 24 h post the 14th dose of 1, 3 or 30 mg/kg I-57. […] Overall, IKZF2 degradation assessed by IHC was generally consistent with our findings in Tregs by flow cytometry, though dose dependency was less apparent. Together, the data support the finding of profound I-57-mediated IKZF2 degradation in tumor-infiltrating lymphocytes (FIG. 8A and FIG. 8B).

[8] = Toxicology in rats (5-day and 4-week GLP studies); format: in vivo
Description: The non-clinical safety profile of I-57 was established in vitro, and in vivo in rats and cynomolgus monkeys in studies up to 4-weeks duration. Based on the outcome of these studies, QTc interval prolongation was identified as the principal safety signal for I-57. There were other toxicities such as diarrhea and vomiting in monkeys, and mortality, clinical signs and target organ toxicities in rats; however, these occurred at exposures far above those expected to result in clinical activity.
Clinical signs, decreases in body weight and food consumption, and clinical pathology changes reflecting inflammation, renal and liver injury, and stress were generally evident in the pre-terminal animals. Kidney toxicity was evident in rats at doses >100 mg/kg/day and was characterized by increased weight, hematuria, proteinuria, with or without increased blood urea and creatinine, degeneration, regeneration and inflammation at 300 mg/kg/day.

[9] = target: T2, FIZ1 (Homo sapiens, UniProt Q96SL8); assay: Whole cell proteomic analysis in 293T cells and subsequent analyses: FIZ1; format: cell-based
T2 construct: endogenous in cells; host or cells: 293T
T2 sequence (Q96SL8 whole entry): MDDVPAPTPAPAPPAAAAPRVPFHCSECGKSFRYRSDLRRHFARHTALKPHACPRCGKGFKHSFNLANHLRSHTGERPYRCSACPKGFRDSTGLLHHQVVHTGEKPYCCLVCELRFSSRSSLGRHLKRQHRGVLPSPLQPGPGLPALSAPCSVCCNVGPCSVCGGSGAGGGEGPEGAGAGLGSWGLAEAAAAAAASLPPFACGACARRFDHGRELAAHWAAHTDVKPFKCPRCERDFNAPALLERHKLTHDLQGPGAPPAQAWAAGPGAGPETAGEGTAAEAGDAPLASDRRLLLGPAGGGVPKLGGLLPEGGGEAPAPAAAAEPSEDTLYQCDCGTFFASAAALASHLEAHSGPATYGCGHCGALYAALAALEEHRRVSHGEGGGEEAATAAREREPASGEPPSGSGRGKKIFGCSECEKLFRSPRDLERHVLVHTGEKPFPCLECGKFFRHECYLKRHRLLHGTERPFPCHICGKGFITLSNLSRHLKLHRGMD
Experimental: Other potential degradation targets of I-57 were evaluated in 293T cells using whole cell proteomic analysis. […] Subsequent analyses have confirmed that FIZ1 is degraded by about 50% at a 10 μM concentration of I-57 ([I-57 Investigator's Brochure]). […] FIZ1 is expressed in the neural retina where it transcriptionally represses the differentiation of photoreceptors. FIZ1 is also expressed in non-ocular tissues with unknown function.

[10] = Repeated oral dose PK in MDA-MB231 xenograft human PBMC adoptive transfer model; format: in vivo, NSG mice; conditions: hPBMC AdT mouse
Experimental: as §1
Mice were administered I-57 daily for 14 consecutive days at the doses shown. Longitudinal I-57 plasma concentrations were assessed (Table 14).

[11] = female, NSG, mouse, plasma, po, 0.3 mg/kg, unbound, post 1st dose, p.o. 0.3 mg/kg daily
[12] = female, NSG, mouse, plasma, po, 0.3 mg/kg, unbound, post 13th dose, p.o. 0.3 mg/kg daily
[13] = female, NSG, mouse, plasma, po, 1 mg/kg, unbound, post 1st dose, p.o. 1 mg/kg daily
[14] = female, NSG, mouse, plasma, po, 1 mg/kg, unbound, post 13th dose, p.o. 1 mg/kg daily
[15] = female, NSG, mouse, plasma, po, 3 mg/kg, unbound, post 1st dose, p.o. 3 mg/kg daily
[16] = female, NSG, mouse, plasma, po, 3 mg/kg, unbound, post 13th dose, p.o. 3 mg/kg daily
[17] = female, NSG, mouse, plasma, po, 30 mg/kg, unbound, post 1st dose, p.o. 30 mg/kg daily
[18] = female, NSG, mouse, plasma, po, 30 mg/kg, unbound, post 13th dose, p.o. 30 mg/kg daily

O=C1CCC(N2Cc3cc(C4CCN(Cc5ccccc5)CC4)ccc3C2=O)C(=O)N1 (stereo not shown) [Compound I-57, 3-(5-(1-benzylpiperidin-4-yl)-1-oxoisoindolin-2-yl)piperidine-2,6-dione]
binding to plasma protein [1]: 54%
time-dependent inhibition of CYP2C9 [2]: no apparent time-dependent inhibition
time-dependent inhibition of CYP2B6 [3]: no apparent time-dependent inhibition
reduction of IKZF2 positivity in tumor Tregs ([4]; flow cytometry, unbound exposure (AUCinf) 7 ng*h/mL): 31%
reduction of IKZF2 positivity in tumor Tregs ([4]; flow cytometry, unbound exposure (AUCinf) 30 ng*h/mL): 43%
reduction of IKZF2 positivity in tumor Tregs ([4]; flow cytometry, unbound exposure (AUCinf) 157 ng*h/mL): 56%
reduction of IKZF2 positivity in tumor Tregs ([4]; flow cytometry, unbound exposure (AUCinf) 3474 ng*h/mL): 75%
time of maximum effects on IKZF2 positive Tregs ([4]; post dose, hPBMC AdT model): 4 to 16 h
IKZF2 degradation (reduction of the percentage of IKZF2 positive Tregs) ([4]; tumor and peripheral blood, after 14 daily doses, flow cytometry): robust dose and exposure-dependent IKZF2 degradation
time-dependent inhibition of CYP2C19 [5]: no apparent time-dependent inhibition
inhibition of CYP3A [6]: very little and no inhibition
IKZF2 degradation in total tumor-infiltrating lymphocytes ([7]; 30 mg/kg): approximately 85%
IKZF2 levels in total tumor-infiltrating lymphocytes ([7]; all dose levels (1, 3 or 30 mg/kg)): Robust reduction in IKZF2 levels
reversibility of findings ([8]; rat, in vivo): fully reversed or showed ongoing recovery
stomach findings ([8]; rat, in vivo, 300 mg/kg/day): mucosal hyperplasia, inflammation and degeneration in the stomach
urinary bladder findings ([8]; rat, in vivo, 300 mg/kg/day): Degenerative changes were present in the urinary bladder
dose at which kidney toxicity was evident ([8]; rats): > 100 mg/kg/day
dose at which mortality occurred ([8]; rats, females): > 300 mg/kg/day
dose at which mortality occurred ([8]; rats, males): 1000 mg/kg
degradation of FIZ1 ([9]; 10 μM I-57, subsequent analyses): about 50%
degradation of FIZ1 ([9]; 293T cells, whole cell proteomic analysis): degraded
AUC(0-inf) [10, 11]: 7.1 ng·h/mL
Cmax [10, 11]: 2.9 ng/mL
AUC(0-inf) [10, 12]: 7.5 ng·h/mL
Cmax [10, 12]: 1.1 ng/mL
AUC(0-inf) [10, 13]: 30 ng·h/mL
Cmax [10, 13]: 8.8 ng/mL
AUC(0-inf) [10, 14]: 20 ng·h/mL
Cmax at 13 days [10, 14]: 4.6 ng/mL
AUC(0-inf) [10, 15]: 157 ng·h/mL
Cmax [10, 15]: 53 ng/mL
AUC(0-inf) [10, 16]: 92 ng·h/mL
Cmax [10, 16]: 27 ng/mL
AUC(0-inf) [10, 17]: 3470 ng·h/mL
Cmax [10, 17]: 1250 ng/mL
AUC(0-inf) [10, 18]: 4270 ng·h/mL
Cmax [10, 18]: 1300 ng/mL
dose proportionality of AUC and Cmax ([10]; between 3 and 30 mg/kg): over-dose proportional increase
change in exposure by repeated dosing ([10]; daily dosing): No significant increase in exposure
dose proportionality of AUC and Cmax ([10]; from 0.3 to 3 mg/kg): dose proportional increase
